The record followed here is US4824834A, “Pyrazolotriazine compounds” (Otsuka Pharmaceutical Company, Limited, priority 1986, dated 1989).

The first experiment concerns uric acid in serum. As to the kind of experiment: Lowering effect of test compound on the level of uric acid in serum (in vivo, oral administration). On the set-up: species or system mouse (normal male ICR mice). The conditions noted are these: Mus musculus, 4 hours after administration, male ICR mice, suspended in 0.5% CMC-Na, read-out: in vivo Lowering rate (%) of uric acid in serum (in 4 hours). Here is the method: Experiment 2 (In Vivo: Oral Administration)
(1) Animals, Method of Administration and Sampling of Serum
Normal male ICR mice (weighting about 30 g), were provided normal diet and tap water ad libitum. A test compound suspended in 0.5% CMC-Na was administered orally to the mice (each group: 6 mice) in a dose of 5 mg/kg.
(2) Measurement of Amount of Uric Acid in Serum
To the serum (200 μl) was added 10% perchloric acid (100 μl), and the mixture was centrifuged. To the supernatant fluid (100 μl) was added 0.2M Na2 HPO4 (200 μl), and the mixture (20 μl) was analyzed by HPLC to measure the amount of uric acid. The HPLC was carried out under the following conditions.
Column: Cosmosil packed column (.phi. 4.6 mm×150 mm, 5C18 -300)
(§1) Eluting solution: 10 mM phosphate buffer (pH 6.0)
(§2) Retention time: 2.4 minutes (uric acid)
(3) Lowering Effect of Test Compound on the Level of Uric Acid in Serum
The lowering rate of uric acid in serum was calculated by the following equation. [formula]
Consider `Oc1ncnc2[nH]ncc12` [Allopurinol, 4-hydroxypyrazolo[3,4-d]pyrimidine, reference compound], for which the inhibition in vivo at 5 mg/kg was 34%. The same measure, in the same setting: as for `[O-][S+](c1ccccc1)c1ccc(-c2cnn3c(O)ncnc23)cc1` (stereo not drawn) [Example 170, 4-Hydroxy-8-(4-phenylsulfinylphenyl)pyrazolo[1,5-a]-1,3,5-triazine], the figure is 57.2%. The same measure, in the same setting: with `Cc1cc(-c2cnn3c(O)ncnc23)ccc1[S+]([O-])c1ccccc1` (stereo not drawn) [Example 171, 4-Hydroxy-8-(3-methyl-4-phenylsulfinylphenyl)pyrazolo[1,5-a]-1,3,5-triazine] the figure was 73.6%. Same read-out and setting: with `CSc1ccc(-c2cnn3c(O)ncnc23)cc1C` [Example 30, 4-Hydroxy-8-(3-methyl-4-methylthiophenyl)pyrazolo[1,5-a]-1,3,5-triazine] the figure was 47%; with `CSc1ccc(-c2cnn3c(O)ncnc23)cc1Cl` [Example 43, 8-(3-Chloro-4-methylthiophenyl)-4-hydroxypyrazolo[1,5-a]-1,3,5-triazine], 60.6%; with `COc1cc(-c2cnn3c(O)ncnc23)ccc1[S+]([O-])c1ccccc1` (stereo not drawn) [Example 187, 4-Hydroxy-8-(3-methoxy-4-phenylsulfinylphenyl)pyrazolo[1,5-a]-1,3,5-triazine], 63.9%. As for `Cc1cc(-c2cnn3c(O)ncnc23)ccc1Sc1ccccc1` [Example 33, 4-Hydroxy-8-(3-methyl-4-phenylthiophenyl)pyrazolo[1,5-a]-1,3,5-triazine], the inhibition in vivo at 5 mg/kg worked out at 62%.

The target in a further experiment is T1, Xanthine oxidase (Mus musculus, UniProt Q00519).
T1 construct: The small intestine was homogenized in 4-fold volume of cooled phosphate buffered saline solution (PBS) and then centrifuged; from tissue; host or cells: small intestine of ICR strain mice; dialysed supernatant of a 105,000 g centrifugation
T1 sequence (Q00519 whole entry): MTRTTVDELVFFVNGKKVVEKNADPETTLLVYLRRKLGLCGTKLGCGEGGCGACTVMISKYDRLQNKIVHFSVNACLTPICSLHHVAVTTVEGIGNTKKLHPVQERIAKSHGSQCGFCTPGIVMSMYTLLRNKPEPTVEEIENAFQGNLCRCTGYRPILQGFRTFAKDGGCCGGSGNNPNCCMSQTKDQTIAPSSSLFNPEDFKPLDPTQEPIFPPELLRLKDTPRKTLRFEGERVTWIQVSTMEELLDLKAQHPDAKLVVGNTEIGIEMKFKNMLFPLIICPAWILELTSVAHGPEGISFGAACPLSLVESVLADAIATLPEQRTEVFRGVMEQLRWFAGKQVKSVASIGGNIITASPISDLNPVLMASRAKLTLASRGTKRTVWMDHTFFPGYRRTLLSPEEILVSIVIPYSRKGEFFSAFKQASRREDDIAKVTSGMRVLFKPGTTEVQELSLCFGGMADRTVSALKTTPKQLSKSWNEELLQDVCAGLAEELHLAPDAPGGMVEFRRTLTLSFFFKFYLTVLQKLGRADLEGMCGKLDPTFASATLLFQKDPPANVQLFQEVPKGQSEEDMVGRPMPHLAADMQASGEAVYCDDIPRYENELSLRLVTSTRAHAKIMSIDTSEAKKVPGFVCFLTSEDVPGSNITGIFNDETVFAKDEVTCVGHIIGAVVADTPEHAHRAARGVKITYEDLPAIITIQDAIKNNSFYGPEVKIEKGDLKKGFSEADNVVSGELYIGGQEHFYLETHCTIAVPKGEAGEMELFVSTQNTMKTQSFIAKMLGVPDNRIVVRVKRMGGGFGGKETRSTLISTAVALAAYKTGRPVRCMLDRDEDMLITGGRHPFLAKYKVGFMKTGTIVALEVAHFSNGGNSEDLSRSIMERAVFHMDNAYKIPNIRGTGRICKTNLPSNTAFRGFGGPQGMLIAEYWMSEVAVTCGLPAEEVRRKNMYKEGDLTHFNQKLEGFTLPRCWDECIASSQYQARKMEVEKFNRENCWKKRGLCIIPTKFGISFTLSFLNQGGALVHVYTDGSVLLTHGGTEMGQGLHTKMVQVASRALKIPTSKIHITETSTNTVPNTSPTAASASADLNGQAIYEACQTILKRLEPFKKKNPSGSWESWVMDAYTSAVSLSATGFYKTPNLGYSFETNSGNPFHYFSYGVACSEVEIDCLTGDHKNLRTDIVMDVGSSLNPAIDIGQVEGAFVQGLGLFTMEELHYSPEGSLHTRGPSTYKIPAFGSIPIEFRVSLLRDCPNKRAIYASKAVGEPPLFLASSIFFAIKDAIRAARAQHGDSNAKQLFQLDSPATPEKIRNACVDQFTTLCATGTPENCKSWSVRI
Briefly: Xanthine oxidase inhibition (in vitro), mouse small intestine xanthine oxidase solution, HPLC of uric acid. It counts as biochemical, mouse (ICR strain mice. As to conditions: xanthine substrate, incubated at 37° C. for 5 minutes; HPLC UV 292 nm. Here is the method:
(1) Preparation of Xanthine Oxidase Solution
ICR strain mice were decapitated and the small intestine of each mouse was rapidly perfused with cooled physiological saline solution and removed. The small intestine was homogenized in 4-fold volume of cooled phosphate buffered saline solution (PBS) and then centrifuged at 105,000 g for 60 minutes. The supernatant fluid was dialyzed overnight against PBS. The dialyzed solution thus prepared was stored at -20° C. until used.
(2) Preparation of the Solution Containing the Present Compound
The compound of this invention was dissolved in DMSO (200 μl) and 2N NaOH (100 μl), and then PBS was added to prepare a solution (25 ml) containing 10^-3 M of the compound of this invention. This solution was diluted with PBS to prepare solutions containing the compound in the concentration of 10^-4, 10^-5, 10^-6, 10^-7, 10^-8, 10^-9, 10^-10, and 10^-11 M, respectively.
(3) Method for the Measurement
The assay mixture, consisted of the composition mentioned below, was incubated at 37° C. for 5 minutes. The reaction was stopped by heating in boiling water for one minute. Twenty microliters of the supernatant was analyzed by high performance liquid chromatography (HPLC) under the conditions mentioned below.
Xanthine oxidase solution (diluted in 4-folds with PBS): 200 μl
Solution containing the present compound: 200 μl
Column: osmosil packed column (.phi. 4. mm×150 mm, 5C18×300)
as §1, §2
(4) Percent Inhibition of the Compound Against Xanthine Oxidase
The percent inhibition was calculated by the following equation. [formula]
As to each of the solutions containing the present compound as prepared in the above (2), the percent inhibition was calculted, and IC50 values were obtained from a plot of the percent inhibition against the log of the concentration of the compound of this invention.
As a reminder, the IC50 is the concentration at which inhibition is half-maximal. Read a high IC50 as weaker potency. Consider `CN(C)S(=O)(=O)c1ccc(-c2cnn3c(O)ncnc23)cc1Cl` [Example 136, 8-(3-Chloro-4-dimethylaminosulfonylphenyl)-4-hydroxypyrazolo[1,5-a]-1,3,5-triazine], for which half-maximal inhibition (IC50) was put at 32 nM.

`[O-][S+](c1ccccc1)c1ccc(-c2cnn3c(O)ncnc23)cc1` (stereo not drawn) [Example 170, 4-Hydroxy-8-(4-phenylsulfinylphenyl)pyrazolo[1,5-a]-1,3,5-triazine] yielded a half-inhibitory concentration (IC50) of 8 nM. The same measure, in the same setting: with `COc1cc(-c2cnn3c(O)ncnc23)ccc1[N+](=O)[O-]` [Example 74, 4-Hydroxy-8-(3-methoxy-4-nitrophenyl)pyrazolo[1,5-a]-1,3,5-triazine] the figure was 50 nM; with `O=C(c1ccccc1)c1ccc(-c2cnn3c(O)ncnc23)cc1` [Example 70, 8-(4-Benzoylphenyl)-4-hydroxypyrazolo[1,5-a]-1,3,5-triazine], 5.2 nM.

Molecule `Cc1ccc(NS(=O)(=O)c2ccc(-c3cnn4c(O)ncnc34)cc2)cc1` [Example 95, 4-Hydroxy-8-[4-(4-methylphenylaminosulfonyl)phenyl]pyrazolo[1,5-a]-1,3,5-triazine] came in with an IC50 of 3.6 nM.

In turn, `CC(O)c1ccc(NS(=O)(=O)c2ccc(-c3cnn4c(O)ncnc34)cc2)cc1` (stereo not drawn) [Example 101, 4-Hydroxy-8-[4-(4-α-hydroxyethylphenylaminosulfonyl)phenyl]pyrazolo[1,5-a]-1,3,5-triazine] came in with a half-inhibitory concentration (IC50) of 54 nM. `Cc1cc(-c2cnn3c(O)ncnc23)ccc1Br` [Example 142, 8-(4-Bromo-3-methylphenyl)-4-hydroxypyrazolo[1,5-a]-1,3,5-triazine] displayed a concentration for half-maximal inhibition (IC50) of 52 nM.

`Cc1cc(-c2cnn3c(O)ncnc23)ccc1[S+]([O-])c1ccccc1` (stereo not drawn) [Example 171, 4-Hydroxy-8-(3-methyl-4-phenylsulfinylphenyl)pyrazolo[1,5-a]-1,3,5-triazine] registered an IC50 of 2.4 nM. `CCc1cccc(NS(=O)(=O)c2ccc(-c3cnn4c(O)ncnc34)cc2)c1` [Example 97, 8-[4-(3-Ethylphenylaminosulfonyl)phenyl]-4-hydroxypyrazolo[1,5-a]-1,3,5-triazine]: the IC50 was determined as 0.45 nM.

`Cc1cc(-c2cnn3c(O)ncnc23)ccc1S(=O)(=O)N(C)C` [Example 138, 8-(4-Dimethylaminosulfonyl-3-methylphenyl)-4hydroxypyrazolo[1,5-a]-1,3,5-triazine] yielded an IC50 of 39 nM. The same measure, in the same setting: with `CSc1ccc(-c2cnn3c(O)ncnc23)cc1C` [Example 30, 4-Hydroxy-8-(3-methyl-4-methylthiophenyl)pyrazolo[1,5-a]-1,3,5-triazine] the figure was 71 nM. On the same count and under the same terms, as for `CSc1ccc(-c2cnn3c(O)ncnc23)cc1Cl` [Example 43, 8-(3-Chloro-4-methylthiophenyl)-4-hydroxypyrazolo[1,5-a]-1,3,5-triazine], the figure is 10 nM; as for `CCSc1ccc(-c2cnn3c(O)ncnc23)cc1` [Example 17, 8-(4-Ethylthiophenyl)-4-hydroxypyrazolo[1,5-a]-1,3,5-triazine], 30 nM.

The molecule `Oc1ncnc2c(-c3cc(Cl)c(OCc4ccccc4)c(Cl)c3)cnn12` [Example 52, 8-(4-Benzyloxy-3,5-dichlorophenyl)-4-hydroxypyrazolo[1,5-a]-1,3,5-triazine] showed a half-inhibitory concentration (IC50) of 53 nM. Same read-out and setting: with `Oc1ncnc2c(-c3cc(Cl)c(Cl)c(Cl)c3)cnn12` [Example 53, 4-Hydroxy-8-(3,4,5-trichlorophenyl)pyrazolo[1,5-a]-1,3,5-triazine] the figure was 15 nM; with `COc1cc(-c2cnn3c(O)ncnc23)ccc1[S+]([O-])c1ccccc1` (stereo not drawn) [Example 187, 4-Hydroxy-8-(3-methoxy-4-phenylsulfinylphenyl)pyrazolo[1,5-a]-1,3,5-triazine], 25 nM. Same read-out and setting: with `Oc1ncnc2c(-c3ccc(Sc4ccccc4)cc3)cnn12` [Example 19, 4-Hydroxy-8-(4-phenylthiophenyl)pyrazolo[1,5-a]-1,3,5-triazine] the figure was 160 nM; with `COC(=O)c1ccc(NS(=O)(=O)c2ccc(-c3cnn4c(O)ncnc34)cc2)cc1OC` [Example 113, 4-Hydroxy-8-[4-(3-methoxy-4-methoxycarbonylphenylaminosulfonyl)phenyl]pyrazolo[1,5-a]-1,3,5-triazine], 34 nM; with `O=S(=O)(NCc1cccs1)c1ccc(-c2cnn3c(O)ncnc23)cc1` [Example 134, 4-Hydroxy-8-[4-(2-thienylmethylaminosulfonyl)phenyl]pyrazolo[1,5-a]-1,3,5-triazine], 76 nM. The same measure, in the same setting: as for `Cc1cc(-c2cnn3c(O)ncnc23)ccc1Sc1ccccc1` [Example 33, 4-Hydroxy-8-(3-methyl-4-phenylthiophenyl)pyrazolo[1,5-a]-1,3,5-triazine], the figure is 18 nM; as for `COC(=O)c1ccc(NS(=O)(=O)c2ccc(-c3cnn4c(O)ncnc34)cc2)cc1` [Example 105, 4-Hydroxy-8-[4-(4-methoxycarbonylphenylaminosulfonyl)phenyl]pyrazolo[1,5-a]-1,3,5-triazine], 2.2 nM; as for `O=S(=O)(Nc1cccc(O)c1)c1ccc(-c2cnn3c(O)ncnc23)cc1` [Example 107, 4-Hydroxy-8-[4-(3-hydroxyphenylaminosulfonyl)phenyl]pyrazolo[1,5-a]-1,3,5-triazine], 64 nM. Turning to `Cc1ccc(Sc2ccc(-c3cnn4c(O)ncnc34)cc2)cc1` [Example 21, 4-Hydroxy-8-[4-(4-methylphenylthio)phenyl]pyrazolo[1,5-a]-1,3,5-triazine], half-maximal inhibition (IC50) was put at 310 nM. On the same count and under the same terms, with `Cc1cc(-c2cnn3c(O)ncnc23)ccc1[N+](=O)[O-]` [Example 73, 4-Hydroxy-8-(3-methyl-4-nitrophenyl)pyrazolo[1,5-a]-1,3,5-triazine] the figure was 40 nM.

As for `Oc1ncnc2c(-c3ccc(Br)c(Cl)c3)cnn12` [Example 143, 8-(4-Bromo-3-chlorophenyl)-4-hydroxypyrazolo[1,5-a]-1,3,5-triazine], the half-inhibitory concentration (IC50) came out at 36 nM. Same read-out and setting: as for `CC(C)(C)c1ccc(NS(=O)(=O)c2ccc(-c3cnn4c(O)ncnc34)cc2)cc1` [Example 100, 8-[4-(4-t-Butylphenylaminosulfonyl)phenyl]-4hydroxypyrazolo[1,5-a]-1,3,5-triazine], the figure is 0.75 nM. Still for that read-out and setting: as for `O=S(=O)(Nc1ccc(Cl)cc1)c1ccc(-c2cnn3c(O)ncnc23)cc1` [Example 109, 8-[4-(4-Chlorophenylaminosulfonyl)phenyl]-4hydroxypyrazolo[1,5-a]-1,3,5-triazine], the figure is 3.6 nM. On the same count and under the same terms, as for `COC(=O)c1ccc(NS(=O)(=O)c2ccc(-c3cnn4c(O)ncnc34)cc2)cc1O` [Example 112], the figure is 6.5 nM; as for `CCc1cc(-c2cnn3c(O)ncnc23)ccc1SC` [Example 39, 8-(3-Ethyl-4-methylthiophenyl)-4-hydroxypyrazolo[1,5-a]-1,3,5-triazine], 45 nM; as for `CC(C)c1ccc(NS(=O)(=O)c2ccc(-c3cnn4c(O)ncnc34)cc2)cc1` [Example 99, 4-Hydroxy-8-[4-(4-isopropylphenylaminosulfonyl)phenyl]pyrazolo[1,5-a]-1,3,5-triazine], 0.14 nM. `Oc1ncnc2c(-c3ccc(Sc4ccccc4)c(Cl)c3)cnn12` [Example 167, 8-(3-Chloro-4-phenylthiophenyl)-4-hydroxypyrazolo[1,5-a]-1,3,5-triazine] gave an IC50 of 5 nM. Still for that read-out and setting: as for `CCc1ccc(NS(=O)(=O)c2ccc(-c3cnn4c(O)ncnc34)cc2)cc1` [Example 96, 8-[4-(4-Ethylphenylaminosulfonyl)phenyl]-4-hydroxypyrazolo[1,5-a]-1,3,5-triazine], the figure is 0.1 nM.
